Results on one compound are retold here after patent publication US9174951B2, “Glucose transporter inhibitors” (The Ohio State University Research Foundation, priority 2012, dated 2015).

“Also recorded” adds a separate entry of the source.

One series concerns MCF-7 cells. Kind of series: MTT cell viability assay, MCF-7. It counts as cell-based. Particulars: Homo sapiens, MCF7, 72 h, 10% FBS. Here is the method:
(§1) Cell Viability Assay. Cell viability was determined using the 3-(4,5-dimethylthiazol-2-yl)-2,5-diphenyltetrazolium bromide (MTT) assay. Cancer cells were seeded at 5000 cells/well and normal cells were seeded at 8000 cells/well in 96-well plates and incubated in 10% FBS-supplemented medium for 24 h. Cells were then treated with individual agents for 72 h. Drug-containing medium was replaced with medium containing MTT (0.5 mg/mL), followed by incubation at 37° C. for 1 h. After removal of medium, the reduced MTT dye in each well was solubilized in 100 μL of DMSO and absorbance at 570 nm was measured.
(§2) Compound 30 was evaluated for antiproliferative activity in panels of different human cancer cells lines, including those of prostate, breast and pancreatic cancers. In all experiments, cells were treated with a range of concentrations of Compound 30 in the presence of 10% fetal bovine serum (FBS). Cell viability was then determined after 72 h of treatment using the 3-(4,5-dimethylthiazol-2-yl)-2,5-diphenyltetrazolium bromide (MTT) assay. […] It is noteworthy that despite this high antiproliferative potency, normal human prostate epithelial cells (PrECs) were resistant to the cytotoxic effect of Compound 30 even at 10 μM.

For the next series, the system named is BxPC3 cells. Description: MTT cell viability assay, BxPC3. It counts as cell-based. Particulars: Homo sapiens, BXPC-3, 72 h, 10% FBS. Here is the method:
as §1, §2

In a further series the test system is PANC1 cell line. Kind of series: MTT cell viability assay, PANC1. It counts as cell-based. Particulars: Homo sapiens, PANC-1, 72 h, 10% FBS, read-out: IC50, viability of PANC1 cells. Here is the method: as §1, §2
A further series has as its system MDAMB-468 cells. Kind of series: MTT cell viability assay, MDAMB-468. It counts as cell-based. Particulars: Homo sapiens, MDA-MB-468, 72 h, 10% FBS. Here is the method:
as §1, §2

The test system of a further series is DU-145 cells. Description: MTT cell viability assay, DU-145. It counts as cell-based. Particulars: Homo sapiens, 72 h, 10% FBS. Here is the method: as §1, §2
For series [1], the system named is human mammary epithelial cells (HMECs). Kind of series: MTT cell viability assay, normal mammary epithelial cells. It counts as cell-based. Conditions: 72 h, up to 10 μM.
Excerpt: (§3) Cells and Cell Culture. LNCaP prostate cancer cells were obtained from the American Type Culture Collection (Manassas, Va.). Cells were maintained in 10% fetal bovine serum (FBS)-supplemented RPMI 1640 medium (Invitrogen, Carlsbad, Calif.). Normal human mammary epithelial cells (HMEC) and normal human prostate epithelial cells (PrEC) were obtained from Lonza (Walkersville, Md.) and were maintained in Mammary Epithelial Cell Growth Medium (MEGM) and Prostate Epithelial Cell Growth Medium (PrEGM) (Lonza, Walkersville, Md.), respectively.
as §1

In a further series the test system is AsPC1 cells. Description: MTT cell viability assay, AsPC1. It counts as cell-based. Particulars: Homo sapiens, 72 h, 10% FBS. Here is the method:
as §1, §2

In series [2] the test system is normal human prostate epithelial cells (PrECs). Kind of series: MTT cell viability assay, normal prostate epithelial cells. Particulars: 72 h, up to 10 μM. It counts as cell-based.
Excerpt: as §3, §1

The test system of another series is Cal-51 cells. Kind of series: MTT cell viability assay, Cal-51. Type of series: cell-based. Conditions: Homo sapiens, 72 h, 10% FBS. Here is the method: as §1, §2
Series [3] deals with PANC1-GemR (gemcitabine-resistant subline). Kind of series: MTT cell viability assay, PANC1-GemR. Particulars: Homo sapiens, 72 h, 10% FBS, read-out: IC50, viability of PANC1-GemR cells. It counts as cell-based. Here is the method: as §1, §2
Series [4] relates to LNCaP cells. Description: Western blot analysis of energy restriction-associated markers in LNCaP cells. Type of series: cell-based, human. Here is the method:
FIG. 4. (A) Dose-dependent suppressive effects of compounds 1, 2, 4, 5, 28, and 30 on the viability of LNCaP cells by MTT assays in 10% FBS-containing RPMI 1640 medium after 72 h of drug treatment. Column, mean; bars, SD (N=6). (B) Dose-dependent effect of compound 30 on the viability of normal prostate epithelial cells (PrECs) and human mammary epithelial cells (HMECs) after 72 h of treatment. Column, mean; bars, SD (N=6). (C) Western blot analysis of the dose-dependent effects of compound 30 on markers associated with apoptosis (PARP cleavage), β-TrCP-mediated protein degradation (β-TrCP, cyclin D1, Sp1, and AR), AMPK activation (p-AMPK, p-mTOR, and pp706SK), ER stress (GRP78 and GADD153), and epigenetic activation of KLF6.
Plasmid Construction, Transient Transfection and Immunoblotting. The full length GLUT1, GLUT4, and GLUT9 ORF cDNA clones were purchased from Addgene (Cambridge, Mass.) and GLUT3 ORF cDNA was purchased from Origene Technologies (Rockville, Md.). GLUT1, GLUT3, and GLUT9 were subcloned into the HindIII/SalI sites and GLUT4 was subcloned into the EcoRI/SalI sites of pEGFP-N2 expression vector (Clontech, Palo Alto, Calif.). Transfections were performed by electroporation using Nucleofector kit R of the Amaxa Nucleofector system (Lonza, Walkersville, Md.) according to the manufacturer's protocol. Immunoblotting was performed using cells lysates harvested with SDS lysis buffer (1% SDS, 50 mM Tris-HCl pH 8.0, 10 mM EDTA) containing 1× protease inhibitor cocktail (Sigma) and phosphatase inhibitor and were electrophoresed in 8˜12% SDS polyacrylamide gels and then transferred onto nitrocellulose membranes. After blotting in 5% nonfat dry milk, the membranes were incubated with primary antibodies at 1:1,000 dilution in TBS-Tween 20 overnight at 4° C., and then secondary antibodies conjugated with horseradish peroxidase at 1:5,000 dilution in TBS-Tween 20 for 1 hour at room temperature. Protein bands were visualized on X-ray film using an enhanced chemiluminescence system.

A further series deals with PC-3 cells. Description: MTT cell viability assay, PC-3. Type of series: cell-based. Conditions: Homo sapiens, 72 h, 10% FBS. Here is the method:
as §1, §2

Series [5] has as its system LNCaP cells. Kind of series: [3H]2-DG glucose uptake assay in LNCaP cells. It counts as cell-based, human. Here is the method:
Screening of the focused compound library to identify lead glucose uptake inhibitors.
Glucose Uptake Assay. LNCaP cells were seeded in six-well plates (3×10^5 cells/well) for 24 h. […] The cells were lysed in […] lysis buffer (10 mM Tris-HCl pH 8.0, 0.1% SDS) and aliquots were taken for measurement of radioactivity using a scintillation counter (Beckman LS6500).

Another series relates to SKBR3 cells. Description: MTT cell viability assay, SKBR3. Particulars: Homo sapiens, SK-BR-3, 72 h, 10% FBS. Type of series: cell-based. Here is the method: as §1, §2
The test system of the next series is MDA-MB-231 cells. Description: MTT cell viability assay, MDA-MB-231. Type of series: cell-based. Particulars: Homo sapiens, 72 h, 10% FBS. Here is the method:
as §1, §2

On to `CC(CN1C(=O)S/C(=C\c2ccc(O)c(C(F)(F)F)c2)C1=O)(CC(F)(F)F)CC(F)(F)F` [Compound 30, 5-(4-Hydroxy-3-trifluoromethyl-benzylidene)-3-[4,4,4-trifluoro-2-methyl-2-(2,2,2-trifluoro-ethyl)-butyl]-thiazolidine-2,4-dione], for which the IC50 was around 700 nM in the series on MCF-7 cells; around 7500 nM with BxPC3 cells; around 2500 nM in the series on PANC1 cell line; 1500 nM in the series with MDAMB-468 cells; 1500 to 1700 nM with DU-145 cells; around 5000 nM in the series on AsPC1 cells. Also, the IC50 in the series with Cal-51 cells is 1700 nM; in series [3], around 2500 nM; with PC-3 cells, 1500 to 1700 nM; with LNCaP cells [5] (Homo sapiens, LNCaP, Krebs-Ringer phosphate buffer, 37° C., 30 min of drug treatment, read-out: IC50 in blocking [3H]2-DG uptake into LNCaP cells) it was 2500 nM; in the series with SKBR3 cells it was 1600 nM; with MDA-MB-231 cells it was 1900 nM. Further, the “cytotoxic effect in HMECs” value in series [1] is recorded as “resistant; also recorded: no appreciable cytoxicity; also recorded: no appreciable cytotoxicity”. In addition, in [2], the “cytotoxic effect in PrECs” value was “resistant; also recorded: no appreciable cytoxicity; also recorded: no appreciable cytotoxicity”. For the same compound, in the series on LNCaP cells [4], the AMPK phosphorylation entry is recorded as “increases”. Besides, in the series on LNCaP cells [4], the “PARP cleavage (apoptosis)” value is listed as “dose-dependent increase”. The “expression of ER stress markers GRP78 and GADD153” value in the series with LNCaP cells [4] was “increased expression”. The “expression of KLF6” value in the series with LNCaP cells [4] is on record as “increased the expression”. In addition, the “expression of cyclin D1, Sp1 and AR” value in the series with LNCaP cells [4] is “downregulation”. In the series on LNCaP cells [4], the “levels of p-mTOR and p-p70S6K” value is recorded as “concomitant decreases”. In addition, in the series on LNCaP cells [4], the β-TrCP expression result is listed as “dose dependently increased”. The “inhibition of [3H]2-DG uptake into LNCaP cells (screening, in words)” value with LNCaP cells [5] (each at 5 μM, 30 min of exposure) was “substantially improved potency relative to compound 5”.
